≈ marks a conversion by molar mass, not a printed value. Records with an inconclusive call do not appear. Calls of active or inactive are those of the source. How the calls were made is not given here.

This assay deals with M. tuberculosis H37Rv growth inhibition. Kind of assay: Mycobacterium tuberculosis H37Rv growth inhibition, cell based, confirmatory dose response (AID 1949).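 Further: bacteria grown 7 days with compound before Alamar blue readout.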

Broadly, the IC50 is the concentration that gives 50% inhibition. Consider `CCC(C)NCCCOc1ccc(Cl)c2ccccc12` (stereo unspecified), for which the IC50 is 2.06 µg/mL (≈ 7.06 µM).
In the case of `Cc1ccc(C2CC(c3cc(Br)ccc3O)=NN2)cc1` (stereo unspecified) it was 3.46 µg/mL (≈ 10.4 µM); in that of `COc1cccc(NC(=O)c2c(NC(=O)c3cccnc3)sc3c2CCC3)c1`, 0.1 µg/mL (≈ 0.254 µM).
For `O=C(CCNc1cccc(Br)c1)c1cccs1` the value was 5.43 µg/mL (≈ 17.5 µM).
In the case of `O=C(CCNc1ccc(Cl)c(C(F)(F)F)c1)c1cccs1` it was 3.17 µg/mL (≈ 9.5 µM).
As to `Cc1ccc(-c2csc(-c3ccc(O)cc3)n2)cc1`, the half-maximal inhibitory concentration (IC50) is 2.69 µg/mL (≈ 10.1 µM).
With `Cc1nn(-c2nc3ccccc3[nH]2)c(N)c1-c1ccccc1`, the IC50 was 0.43 µg/mL (≈ 1.49 µM).
For `Cc1cccnc1Nc1nc(-c2ccccn2)cs1`, the IC50 is less than 0.1 µg/mL.
Regarding `CCOc1ccc(Nc2nc(NCc3ccco3)c3ccccc3n2)cc1`, the IC50 was 1.36 µg/mL (≈ 3.77 µM).
With `CCC(C)c1ccc(OCC(=O)Nc2ccc(OC)c([N+](=O)[O-])c2)cc1` (stereo unspecified), the concentration for half-maximal inhibition (IC50) was 1.61 µg/mL (≈ 4.49 µM).
Regarding `CCOC(=O)/C=C/C(=O)Nc1sc2c(c1C(=O)OC)CCC2`, the IC50 is 0.57 µg/mL (≈ 1.76 µM).
In the case of `O=C(Nc1nc2c(Cl)c(Cl)ccc2s1)c1ccco1`, the IC50 is 4.83 µg/mL (≈ 15.4 µM).
As to `CCOC(=O)COc1ccc2c(C)c(CC(=O)OC)c(=O)oc2c1C`, the half-maximal inhibitory concentration (IC50) is 7.36 µg/mL (≈ 21.1 µM).
With `O=C(Nc1cccc(Cl)c1)c1cc(Br)ccc1Cl`, the IC50 was 1.53 µg/mL (≈ 4.43 µM).
For the compound `CCC(=O)Nc1ccc2oc(-c3c(F)c(F)c(F)c(F)c3F)nc2c1`, the IC50 was 10.5 µg/mL (≈ 29.4 µM).
Take `CCOC(=O)C1=CN(C(C)C)C=C(C(=O)OCC)C1c1cc(OC)ccc1OC`: the IC50 is > 50 µg/mL (inactive).
As for `CC(C)CC(=O)NC(c1ccc(Cl)cc1Cl)c1c(O)ccc2ccccc12` (stereo unspecified), the IC50 was 1.72 µg/mL (≈ 4.28 µM).
Consider `C/C(=N/N=C1\NC(=O)C(Cc2ccc(F)cc2)S1)c1ccc(C)cc1` (stereo unspecified), for which the IC50 is > 50 µg/mL (inactive).
As to `CN1CCN(c2cc(-c3ccccc3)nc3c(C(F)(F)F)cccc23)CC1`, the half-maximal inhibitory concentration (IC50) was 1.88 µg/mL (≈ 5.06 µM).
On to `CCCC(=O)N1CCN(c2ccc(NC(=O)c3cc(Br)ccc3Cl)cc2Cl)CC1`, for which the IC50 was 3.52 µg/mL (≈ 7.05 µM).
Take `CC(=O)N(C)c1ccc(OCC(O)Cn2c3ccc(Cl)cc3c3cc(Cl)ccc32)cc1` (stereo unspecified): the IC50 was 2.96 µg/mL (≈ 6.47 µM).
Take `O=C(/C=C/c1cccs1)N1CCN(Cc2ccc3c(c2)OCO3)CC1`: the half-inhibitory concentration (IC50) was less than 0.1 µg/mL.
On to `O=C(NC(=S)N1CCc2ccccc21)c1ccco1`, for which the 50% inhibitory concentration (IC50) is 5.64 µg/mL (≈ 20.7 µM).
For `O=C(NC1CCCCC1)c1ccc(COc2cccc3ccccc23)o1` the value was 4.65 µg/mL (≈ 13.3 µM).
On to `c1ccc(CNCc2cn(-c3ccccc3)nc2-c2ccncc2)cc1`, for which the IC50 is 16.5 µg/mL (≈ 48.5 µM).
On to `O=C(CCNc1ccc(Cc2ccncc2)cc1)c1ccc([N+](=O)[O-])cc1`, for which the IC50 is 4.37 µg/mL (≈ 12.1 µM).
Turning to `Clc1cc(Br)ccc1OCCCn1ccnc1`, the IC50 was 15 µg/mL (≈ 47.4 µM).
For `Cc1ccc2oc(-c3cc(NC(=O)Cc4ccccc4)ccc3Cl)nc2c1`, the IC50 was less than 0.1 µg/mL.
As to `O=C(O)c1ccc(NC(CC(=O)c2ccccc2)c2ccc(Br)cc2)cc1` (stereo unspecified), the IC50 was 7.58 µg/mL (≈ 17.9 µM).
For the compound `Cc1ccccc1OCCOc1cccc(C=O)c1`, the IC50 is 6.79 µg/mL (≈ 26.5 µM).
With `Cc1cc(NS(=O)(=O)c2ccc(NC(=O)c3ccc(C(C)(C)C)cc3)cc2)no1`, the IC50 was 1.76 µg/mL (≈ 4.26 µM).
Take `COc1ccc(C(=O)C(CN2CCOCC2)c2ccccc2)cc1` (stereo unspecified): the concentration for half-maximal inhibition (IC50) is 2.09 µg/mL (≈ 6.42 µM).
In the case of `CCOC(=O)COc1ccc(Br)c(C=O)c1` it was 5.47 µg/mL (≈ 19.1 µM); in that of `C/C(=N/N=C1\NC(=O)C(Cc2ccc(Cl)cc2)S1)c1ccc(F)cc1` (stereo unspecified), 19 µg/mL (≈ 50.6 µM); in that of `O=C(Oc1ccccc1)c1ccc(COC(=O)c2ccco2)cc1`, 2.69 µg/mL (≈ 8.35 µM).
Consider `CCc1cc(C(=O)OC)c(NC(=S)NCc2ccc(Cl)c(Cl)c2)s1`, for which the IC50 was 0.14 µg/mL (≈ 0.347 µM).
In the case of `NC(N)=Nc1nc(-c2ccccc2)c2cc(F)ccc2n1` it was 7.61 µg/mL (≈ 27.1 µM); in that of `COc1ccc(C2=CC(=O)c3ccccc3C2=O)cc1`, 3.53 µg/mL (≈ 13.4 µM).
`COC(=O)COc1ccc(NC(=O)c2cccc(C)c2)cc1`: the IC50 was 0.58 µg/mL (≈ 1.94 µM).
`Cc1cc2ncn(Cc3ccc(C(C)C)cc3)c2cc1C`: the IC50 was 0.91 µg/mL (≈ 3.27 µM).
In the case of `CCOC(=O)C1CCCN(c2ncnc3c2cnn3-c2ccc(Cl)cc2)C1` (stereo unspecified), the IC50 is 4.21 µg/mL (≈ 10.9 µM).
On to `COc1cc([N+](=O)[O-])ccc1NC(=S)Nc1ccc(F)c(Cl)c1`, for which the IC50 is 2.76 µg/mL (≈ 7.76 µM).
For `Cc1cccc(OCC(O)CN2CCN(C(c3ccccc3)c3ccccc3)CC2)c1C` (stereo unspecified), the IC50 was 2.94 µg/mL (≈ 6.83 µM).
With `CCC(C)Oc1ccc(C(=O)NC(=S)Nc2ccc(N3CCOCC3)cc2)cc1` (stereo unspecified), the IC50 was 1.22 µg/mL (≈ 2.95 µM).
In the case of `COC(=O)COc1ccc(NC(=O)CSc2ccc(Cl)cc2)cc1` it was 0.77 µg/mL (≈ 2.1 µM); in that of `Cn1c(Sc2cnn(-c3ccccc3)c(=O)c2Br)nnc1-c1ccccc1`, 2.81 µg/mL (≈ 6.38 µM).
Turning to `Cc1cc(OCCCN2CCCC(C)C2)cc(C(C)C)c1` (stereo unspecified), the IC50 is 5.85 µg/mL (≈ 20.2 µM).
On to `CCCC(=O)N1CCN(c2ccc(NC(=O)c3cc4ccccc4o3)cc2Cl)CC1`, for which the IC50 is 33.7 µg/mL (≈ 79.1 µM).
In the case of `CN1CCN(c2ccc(NC(=O)c3ccc(-c4ccc(Cl)cc4)o3)cc2)CC1` it was 38 µg/mL (≈ 96 µM); in that of `COc1ccc(-c2csc3ncn(C(C)C(=O)OC4CCCCC4)c(=O)c23)cc1` (stereo unspecified), 10.9 µg/mL (≈ 26.5 µM).
As to `CC(C)(C)C(=O)NC(=S)NNC(=O)C(c1ccccc1)c1ccccc1`, the IC50 is 3.01 µg/mL (≈ 8.15 µM).

These data come from PubChem BioAssay AID1949 (Southern Research Institute, 2009).
